Data taken from paper PMC12431657, “Discovery and mechanistic insights of dibenzoylmethane as a broad spectrum inhibitor of coronavirus” (PLOS Pathogens, 2025).
Several values for one entry are separate records, joined by “and”; a condition that tells them apart may be missing. Equal entries are not always repeated. Where two headings read alike, the source gives them in different places. Peptide text beside a SMILES is read from it. * marks the point of attachment. Cbz = O=C(OCc1ccccc1)*; CH2F = FC*

Tests used:
caspase-6 = molecular target: T1, caspase-6 (Homo sapiens, UniProt P55212); assay type: cell-based
T1 construct: endogenous in cells
T1 sequence (P55212 24-293): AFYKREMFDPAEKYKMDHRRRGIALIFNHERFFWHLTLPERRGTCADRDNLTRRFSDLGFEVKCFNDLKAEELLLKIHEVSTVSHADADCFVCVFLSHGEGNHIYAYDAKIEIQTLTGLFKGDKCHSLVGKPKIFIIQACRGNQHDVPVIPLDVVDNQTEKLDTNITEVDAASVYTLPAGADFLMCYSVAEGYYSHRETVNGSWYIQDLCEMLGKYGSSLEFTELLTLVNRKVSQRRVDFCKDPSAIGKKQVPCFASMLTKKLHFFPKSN

HCoV-OC43 [1] = assay type: cell-based
HCoV-OC43 [2] = test: HCoV-OC43 nucleocapsid protein and caspase-6 in infected cells (Western blot); assay type: cell-based; details: cells pretreated with serially diluted compound
Huh-7 cells [3] = test system: Huh-7 cells; parameters: unit not given beside the values
Huh-7 cells [4] = test: Cytotoxicity assay (CCK-8), Huh-7 cells

## CC[C@H](C)[C@H](NC(=O)[C@H](CCC(=O)OC)NC(=O)[C@@H](NC(=O)OCc1ccccc1)C(C)C)C(=O)N[C@@H](CC(=O)OC)C(=O)CF [Z-VEID-FMK, reference compound] (Cbz-VE(OMe)ID(OMe)-CH2F)
caspase-6; time point 0, replicates
  Caspase-6 activity (Fig5J): 8.3 and 9.2 and 8.8
caspase-6; time point 2, replicates
  Caspase-6 activity (Fig5J): 12.5 and 11.5 and 12.1
caspase-6; time point 4, replicates
  Caspase-6 activity (Fig5J): 11.7 and 13.0 (2×)
caspase-6; time point 6, replicates
  Caspase-6 activity (Fig5J): 9.9 and 10.2 and 9.5
caspase-6; time point 8, replicates
  Caspase-6 activity (Fig5J): 9.8 and 9.0 and 8.1
HCoV-OC43 [1]; RD cells
  antiviral activity in CASP6 knockout cell pools: decreased
HCoV-OC43 [1]; concentration 2, RD-Scramble cells
  Viral inhibition (Fig5K): 58.3 and 64.9 and 64.7
HCoV-OC43 [1]; concentration 20, RD-Scramble cells
  Viral inhibition (Fig5K): 67.9 and 79.5 and 81.6
HCoV-OC43 [2]
  virus replication (nucleocapsid protein, Western blot): inhibited virus replication

## CCC/C=C1\OC(=O)C2=C1CC[C@H]1[C@H]3C=C4C(=O)O/C(=C\CCC)[C@@]4(CC3)[C@@H]21 [levistolide A]
Huh-7 cells [3]
  CC50 (Huh-7): dose-response value per replicate: 17.6
Huh-7 cells [4]
  selectivity index (SI): below 25

## COc1c(CC=C(C)C)c(O)cc2oc(=O)c3c4ccc(O)cc4oc3c12 [neoglycyrol]
Huh-7 cells [3]
  CC50 (Huh-7): dose-response value per replicate: 37.8
Huh-7 cells [4]
  selectivity index (SI): below 25

## COc1ccc2cc1Oc1ccc(cc1)C[C@H]1c3cc(c(OC)cc3CCN1C)Oc1c(OC)c(OC)cc3c1[C@H](C2)N(C)CC3 [tetrandrine]
Huh-7 cells [3]; human
  CC50 (Huh-7): dose-response value per replicate: 114.8
Huh-7 cells [4]
  selectivity index (SI): below 25
